Data set [1] deals with T1, Syk protein (UniProt P48025).
T1 construct: none given for this test; fused on or other part: probably GST at the N-terminus (GST:Syk 6-242), if the ADA protein was also used here
The data set can be described thus: In vitro affinity for Syk by fluorescence spectroscopy (spectrofluorometry). Format: binding. As to conditions: read-out: Kd: dissociation constant with respect to Syk. Here is the method: The dissociation constant of the molecules according to the invention with respect to Syk protein may particularly be measured in vitro by means of fluorescence spectroscopy (or spectrofluorometry).
Finally, the in vitro affinity of the molecule C-13 and some of the 87 molecules mentioned above for Syk protein was measured by means of fluorescence spectroscopy (or spectrofluorometry) and is expressed by the dissociation constant (or Kd) in μmole/liter (μM).

In data set [2] the test system is RBL-2H3 cells. The data set can be described thus: cells. Format: cell-based, rat. As to conditions: for IC50: Rattus norvegicus. The method in brief: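 RBL-2H3 rat basophils sensitized 12-16 h with anti-DNP IgE (0.5 μg/ml), pretreated 90 min at 37° C with compound (DMF 0.25% vehicle), then stimulated 45 min with DNP-BSA (50 ng ml^−1) or ionomycin (1.5 μM). Degranulation read as β-hexosaminidase release.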

Setting [3] is: RBL-2H3 cells, read-out: Degran. IC50: concentration inhibiting mast cell degranulation by 50%.
Setting [4] is: RBL-2H3 cells, 0 to 40 μM, read-out: concentration inhibiting mast cell degranulation by 50% in vitro.

Structures are written as SMILES. Read-outs that look alike come from different tables or passages of the source. Some results are limits rather than exact numbers.

On to `C=CCn1c(CNC(=O)c2cccc(C)c2)cnc1SCC(=O)Nc1cccc(C(=O)OC(C)C)c1` [Molecule 75], for which the dissociation constant Kd in data set [1] amounted to 4.8 µM. The IC50 in data set [2] (setting [3]) is ~5 µg/mL.

For `CCOC(=O)C1=C(C)NC2=C(C(=O)c3ccccc32)C1c1cc(Br)ccc1OCC(=O)O` (stereo not shown) [Molecule 3, {4-bromo-2-[3-(ethoxy carbonyl)-2-methyl-5-oxo-4,5-dihydro-1H-indeno[1,2-b]pyridin-4-yl]phenoxy} acetic acid], the dissociation constant Kd in data set [1] amounted to 6.2 µM. Besides, in data set [2] (setting [3]), the IC50 is > 10 µg/mL.

Regarding `O=C(Nc1ccccc1)c1ccc(NCCN2CCOCC2)c(S(=O)(=O)N2CCOCC2)c1` [Molecule 46, 4-{[2-(4-morpholinyl)ethyl]amino}-3-(4-morpholinylsulphonyl)-N-phenylbenzamide], the equilibrium dissociation constant (Kd) in data set [1] was 3 µM. Besides, in data set [2] (setting [3]), the IC50 is > 10 µg/mL.

In the case of `CCOc1ccc(NC(=O)CC2C(=O)N(c3ccc(OC)cc3)C(=S)N2CCN2CCOCC2)cc1` (stereo not shown) [Molecule 84, N-(4-ethoxyphenyl)-2-{1-(4-methoxyphenyl)-3-[2-(4-morpholinyl)ethyl]-5-oxo-2-thioxo-4-imidazolidinyl}acetamide], in data set [1], the dissociation constant Kd came out at 15.6 µM. The IC50 in data set [2] (setting [3]) is ~7 µg/mL.

As for `CCOC(=O)c1ccc(NC(=O)CSc2nnc(-c3ccco3)c(-c3ccco3)n2)cc1` [Molecule 54, ethyl 4-({[(5,6-di-2-furyl-1,2,4-triazin-3-yl)thio]acetyl}amino)benzoate], the equilibrium dissociation constant (Kd) in data set [1] is 1.6 µM. Moreover, the IC50 in data set [2] (setting [3]) was ~5 µg/mL.

Take `COc1ccc(C)cc1NC(=O)c1ccc(CN2CCC(Cc3ccccc3)CC2)cc1` [Molecule 17, 4-[(4-benzyl-1-piperidinyl)methyl}-N-(2-methoxy-5-methylphenyl)benzamide]: in data set [1], the equilibrium dissociation constant (Kd) came out at 17.9 µM. Further, the IC50 in data set [2] (setting [3]) was > 10 µg/mL.

`CCOC(=O)c1sc(N2C(=O)C(O)=C(C(=O)c3ccc(F)cc3)C2c2ccc(C)cc2)nc1C` (stereo not shown) [Molecule 10, ethyl 2-[3-(4-fluorobenzoyl)-4-hydroxy-2-(4-methylphenyl)-5-oxo-2,5-dihydro-1H-pyrrol-1-yl]-4-methyl-1,3-thiazole-5-carboxylate]: in data set [1], the Kd was found to be 6.3 µM. Further, in data set [2] (setting [3]), the IC50 is ~10 µg/mL.

Turning to `O=C(C1=C(O)C(=O)N(Cc2cccnc2)C1c1cccc(Oc2ccccc2)c1)c1ccc(Cl)cc1` (stereo not shown) [Molecule 1, 4-(4-chlorobenzoyl)-3-hydroxy-5-(3-phenoxyphenyl)-1-(3-pyridinylmethyl)-1,5-dihydro-2H-pyrrol-2-one], the dissociation constant (Kd) in data set [1] came to 5 µM. In addition, in data set [2] (setting [3]), the IC50 was > 10 µg/mL.

`COC(=O)c1ccccc1-c1ccc(/C=C2/SC(=S)N(Cc3ccccc3)C2=O)o1` [Molecule C-13, methyl 2-{5-[(3-benzyl-4-oxo-2-thioxo-1,3-thiazolidin-5-ylidene)methyl]-2-furyl}benzoate]: the equilibrium dissociation constant (Kd) in data set [1] worked out at 4.8 ± 0.2 µM. In addition, in data set [2], the ionomycin-induced degranulation entry is “not detectably affected”. The IC50 in data set [2] (RBL-2H3, read-out: Degran. IC50: concentration inhibiting mast cell degranulation by 50%) was determined as 1 µg/mL.

For `CCOC(=O)c1ccc(NC(=O)CC2C(=O)N(c3ccc(Cl)cc3)C(=S)N2Cc2cccnc2)cc1` (stereo not shown) [Molecule 61], in data set [1], the Kd was 21.8 µM. In addition, the IC50 in data set [2] (setting [4]) is ~5 µM; in data set [2] (setting [3]), ~2 µg/mL.

For `COc1ccccc1C(=O)Nc1ccc(-c2nnc(SCC(=O)c3ccccc3)n2C)cc1` [Molecule 15, 2-methoxy-N-(4-(4-methyl-5-[(2-oxo-2-phenylethyl)thio]-4H-1,2,4-triazol-3-yl)phenyl)benzamide], the Kd in data set [1] worked out at 5.6 µM. Also, the IC50 in data set [2] (setting [3]) is ~2.5 µg/mL.

Consider `CCn1c(CCC(=O)c2ccc(Cl)cc2)nnc1SCC(=O)Nc1ccc(Br)c(C)c1C` [Molecule 82], for which, in data set [1], the Kd turned out to be 3.2 µM. In data set [2] (setting [3]), the IC50 was ~7 µg/mL.

In the case of `COc1cccc(C2C(C(=O)c3ccc(C)cc3)=C(O)C(=O)N2CCCN2CCOCC2)c1` (stereo not shown) [Molecule 4, 3-hydroxy-5-(3-methoxyphenyl)-4-(4-methylbenzoyl)-1-[3-(4-morpholinyl)propyl]-1,5-dihydro-2H-pyrrol-2-one], the Kd in data set [1] amounted to 9.4 µM. Moreover, the IC50 in data set [2] (setting [3]) is > 10 µg/mL.

Regarding `COc1ccc(S(=O)(=O)N(CCc2ccccc2)CC(=O)Nc2ccc(C(N)=O)cc2)cc1` [Molecule 18], the Kd in data set [1] amounted to 0.8 µM. Further, the IC50 in data set [2] (setting [3]) was > 10 µg/mL.

Consider `CCOC(=O)c1ccc(N2C(=O)C(O)=C(C(=O)c3ccccc3)C2c2ccc(ON)cc2OC)cc1` (stereo not shown) [Molecule 6], for which, in data set [1], the Kd turned out to be 6.1 µM. Also, the IC50 in data set [2] (setting [3]) was > 10 µg/mL.

`Cc1cc(C(=O)Nc2ccccc2C(=O)O)ccc1NC(=O)COc1ccc(C(C)C)cc1` [Molecule 49, 2-[(4-{[(4-isopropylphenoxy)acetyl]amino}-3-methylbenzoyl)amino] benzoic acid]: the Kd in data set [1] was 5.5 µM. In addition, in data set [2] (setting [3]), the IC50 is ~10 µg/mL.

Regarding `C=CCn1c(SCC(=O)Nc2cccc(OC)c2)nnc1C(C)NC(=O)c1ccccc1` (stereo not shown) [Molecule 66, N-{1-[4-allyl-5-({2-[(3-methoxyphenyl)amino]-2-oxoethyl}thio)-4H-1,2,4-triazol-3-yl]ethyl} benzamide], the Kd in data set [1] is 8 µM. Besides, in data set [2] (setting [3]), the IC50 was ~5 µg/mL.

In the case of `COc1cc(-c2nnc(SCC(=O)Nc3ccc(Cl)cc3)n2CCc2ccccc2)cc(OC)c1OC` [Molecule 59], in data set [1], the Kd is 8.2 µM. Further, the IC50 in data set [2] (setting [4]) was ~5 µM; in data set [2] (setting [3]), ~2 µg/mL.

Regarding `COc1ccc(C2C(C(=O)c3cccs3)=C(O)C(=O)N2CCCn2ccnc2)c(OC)c1` (stereo not shown) [Molecule 2], the Kd in data set [1] is 16.3 µM. The IC50 in data set [2] (setting [3]) was > 10 µg/mL.

As to `O=C(NCc1nnc(NCc2nc3ccccc3c(=O)[nH]2)n1-c1ccccc1)c1ccccc1F` [Molecule 29], the dissociation constant (Kd) in data set [1] was found to be 6.7 µM. Further, the IC50 in data set [2] (setting [3]) was ~10 µg/mL.

By Kd is commonly meant the free concentration of one partner at which half of the binding sites on the other are occupied at equilibrium, for simple one-to-one binding.

The values above are taken from patent US9504676B2, “Molecules inhibiting a metabolic pathway involving the Syk protein tyrosine kinase and method for identifying said molecules” (CENTRE NATIONAL DE LA RECHERCHE SCIENTIFIQUE, priority 2008, dated 2016).
